For one test, the system named is thoracic aorta. As to the kind of experiment: Relaxation of phenylephrine-contracted thoracic aorta ring strips (vasodilation), Pharmacological Experiment 2. The conditions noted are these: Oryctolagus cuniculus; phenylephrine 10^-6 M; rabbit aorta ring strips; read-out: Vasodilation, IC50, concentration required to inhibit phenylephrine-induced contraction by half. The procedure:
Male rabbits (weighing 1.9-3.0 kg) were anesthetized with sodium pentobarbital and dehematized to remove thoracic aorta. Ring strips (about 2 mm wide) were prepared and suspended in a 40 ml-Magnus bath filled with Krebs-Henseleit solution (NaCl 117 mM; KCl 4.7 mH; CaCl2 2.5 mH; MgSO4 1.2 mM; NaHCO3 24.8 mM; KH2 PO4 1.2 mM; glucose 11.0 mM). The resting tension of 2 g was applied. The Magnus bath was constantly aerated with a mixed gas (95% oxygen+5% carbon dioxide gas). The tension of the strips was measured by an isometric transducer (TB-611T, Nihon Kohden, Japan). The strips were contracted with phenylephrine (10^-6 M) and after the contraction became stable, the compounds were cumulatively added to the bath and relaxing response was observed. The vasodilating action of the compounds was expressed as IC50 (μM), the concentration required to inhibit phenylephurine-induced contraction (which was taken as 100%) by half.

For test [1], the system named is experimental asthma caused by histamine inhalation. Briefly: Effects on experimental asthma caused by histamine inhalation, Pharmacological Experiment 5. Type of test: in vivo, guinea pig (Hartley). The conditions noted are these: 0.2% histamine. The procedure: According to Suyama [Allergy, vol. 15, p. 549 (1966)], female Hartley guinea pigs weighing 490-630 g were placed in an aerosol inhalation device, and 0.2% histamine solution (histamine chloride, Nakarai Kagaku, Japan) was sprayed with an ultrasonic nebulizer (TUR-3200, Nihon Kohden, Japan). Protective action was examined using collapsing as an index. Inhalation of the test compound was performed by placing the guinea pigs in the aforementioned aerosol inhalation device and spraying the test compound dissolved in a physiological saline to a predetermined concentration for 5 minutes. Then, the guinea pigs were allowed to immediately inhale histamine and delay in collapsing by dyspnea was measured.

In the next test the test system is left coronary artery. As to the kind of experiment: Effect on coronary blood flow, perfused left coronary artery of anesthetized dogs, Pharmacological Experiment 3. As to conditions: intracoronary injection; for Increase in coronary blood flow, ED50: dose giving half of the effect of 3 μg nifedipine. The class given is in vivo, mongrel dog. The procedure:
Groups of 2 or 3 adult mongrel dogs were anesthetized with an intravenous administration of 30 mg/kg body weight of sodium pentobarbital. According to the method of Yago et al [Folia Pharmacologica Japonica, vol. 57, p. 380 (1961)], the left coronary artery was perfused and its blood flow was measured. Test compound was injected into the coronary artery at a volume of 10-300 μg. The effects of the test compound on coronary blood flow were expressed as ED50 (μg), the dose required to increase the coronary blood flow by a half of the effects by the coronary artery injection of 3 μg of nifedipine [dimethyl 2,6-dimethyl-4-(2-nitrophenyl)-1,4-dihydropyridine-3,5-dicarboxylate].
The half life (T 1/2, minute) was also measured as the duration of effects.

A short description of test [2]: Antihypertensive action in conscious, unrestrained SHR (i.v.), Pharmacological Experiment 1. The class given is in vivo, spontaneously hypertensive rats (SHR). As to conditions: 0.3 mg/kg i.v., change in blood pressure. An excerpt:
Catheters for blood pressure measurement and for drug administration were previously inserted into carotid artery and jugular vein of spontaneously hypertensive rats (SHR) weighing 350-450 g. […] The blood pressure was automatically measured and analyzed with a pressure transducer.

In another test the test system is trachea. Briefly: Effect on acetylcholine-induced contraction of isolated trachea strips (bronchodilation), Pharmacological Experiment 4. Details: species or system guinea pig (Hartley). The conditions noted are these: Cavia porcellus; acetylcholine 10^-6 M contraction; papaverine 10^-4 M response taken as 100%. The procedure:
Male Hartley guinea pigs weighing 260-390 g were anesthetized with sodium pentobarbital (100 mg/kg, i.p.). The guinea pigs were then dehematized and trachea was isolated. Ventral cartilage of the trachea was incised and ligament was insected to give 3 mm wide strips. The strips were suspended in a 40 ml-Magnus bath filled with Krebs-Henseleit solution (NaCl 117 mM; KCl 4.7 mM; CaCl2 2.5 mM; MgSO4 1.2 mM; NaHCO3 24.8 mM; KH2 PO4 1.2 mM; glucose 11.0 mM). The resting tension of 1 g was applied. The Magnus bath was constantly aerated with a mixed gas (95% oxygen+5% carbon dioxide gas). The tension of the strips was measured with an isometric transducer (TB-611T, Nihon Kohden, Japan) and recorded on a recorder (Ti-102, Tokai Irika, Japan). The strips were contracted with acetylcholine (10^-6 M) and after the contraction became stable, the compounds were cumulatively added to the bath and relaxing response was observed. The relaxation by the compounds was expressed as IC50 (μM), the concentration required to inhibit the papaverine (10^-4 M)-induced response (which was taken as 100%) by half.

As to `C[C@@H](N)[C@H]1CC[C@H](C(=O)Nc2ccnc3[nH]ccc23)CC1` [Example 3, (+)-trans-N-(1H-pyrrolo[2,3-b]pyridin-4-yl)-4-(1-aminoethyl)cyclohexanecarboxamide], the IC50 in the test with thoracic aorta was found to be 90 nM; with trachea, 60 nM. Besides, the results for the “Average time until collapsing” value in test [1] (0.01% inhaled for 5 minutes) and in test [1] (0.1% inhaled for 5 minutes) were 152.4 ± 12.2 s and 235.4 ± 40.2 s, respectively. Besides, the “Increase in coronary blood flow, T 1/2 (half life as duration of effects)” value (shortened to “Increase … (half life as duration of effects)”) in the test on left coronary artery stood at 2.7 min. Moreover, in the test on left coronary artery, the “Increase in coronary blood flow, ED50” value worked out at 8.8 µg. Besides, the “Antihypertensive action (SHR i.v.)” value in test [2] is listed as -62 mmHg.

For the molecule `C[C@@H](N)[C@H]1CC[C@H](C(=O)Nc2ccnc3[nH]ncc23)CC1` [Example 6, (+)-trans-N-(1H-pyrazolo[3,4-b]pyridin-4-yl)-4-(1-aminoethyl)cyclohexanecarboxamide], the IC50 in the test on thoracic aorta was 120 nM. Also, in the test on left coronary artery, the “Increase … (half life as duration of effects)” value stood at 3.0 min and the “Increase in coronary blood flow, ED50” value was found to be 4.3 µg. Further, in test [2], the “Antihypertensive action (SHR i.v.)” value is on record as -96 mmHg. The same molecule came in with an IC50 with trachea of 170 nM.

With `CC(C)(N)[C@H]1CC[C@H](C(=O)Nc2ccnc3[nH]ncc23)CC1` [Example 7, trans-N-(1H-pyrazolo[3,4-b]pyridin-4-yl)-4-(1-amino-1-methylethyl)cyclohexanecarboxamido], the IC50 with thoracic aorta worked out at 190 nM; in the test with trachea it was 310 nM. The “Increase … (half life as duration of effects)” value in the test with left coronary artery stood at 6.7 min. Moreover, the “Increase in coronary blood flow, ED50” value with left coronary artery came to 20 µg. In test [2], the “Antihypertensive action (SHR i.v.)” value was -53 mmHg.

In the case of `CC(C)(N)[C@H]1CC[C@H](C(=O)Nc2ccnc3[nH]ccc23)CC1` [Example 4, trans-N-(1H-pyrrolo[2,3-b]pyridin-4-yl)-4-(1-amino-1-methylethyl)cyclohexanecarboxamide], the IC50 worked out at 80 nM with thoracic aorta and 90 nM with trachea. Moreover, in the test on left coronary artery, the “Increase … (half life as duration of effects)” value was determined as 3.8 min. For the same molecule, the “Increase in coronary blood flow, ED50” value in the test on left coronary artery is 7.0 µg. In addition, the “Antihypertensive action (SHR i.v.)” value in test [2] is listed as -77 mmHg.

The values are drawn from patent publication US5478838A, “4-amino(alkyl)cyclohexane-1-carboxamide compound and use thereof” (Yoshitomi Pharmaceutical Industries, Ltd., priority 1991, dated 1995).
